PubChem BioAssay (NCI)
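Results reflect a 48-hour exposure of cells in 96-well plates to compound at five concentrations. GI50 marks 50% less growth. TGI is the concentration that stops growth completely.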

Experiments:
Assay in all cases: NCI tumour cell line growth inhibition, 48 h
[1] = test system: SF-295 CNS
[2] = test system: BT-549 breast
[3] = test system: COLO 205 colon
[4] = test system: SR leukemia
[5] = test system: UACC-257 melanoma
[6] = test system: MDA-MB-231 breast
[7] = test system: OVCAR-5 ovarian
[8] = test system: SW-620 colon
[9] = test system: KM12 colon
[10] = test system: SK-MEL-28 melanoma
[11] = test system: SNB-75 CNS
[12] = test system: OVCAR-8 ovarian
[13] = test system: NCI-H522 lung
[14] = test system: A549 NSCLC
[15] = test system: NCI-H460 lung
[16] = test system: HOP-62 NSCLC
[17] = test system: SK-MEL-5 melanoma
[18] = test system: NCI-H226 lung
[19] = test system: NCI-H23 lung
[20] = test system: MCF7 breast
[21] = test system: OVCAR-3 ovarian
[22] = test system: UO-31 renal
[23] = test system: EKVX NSCLC
[24] = test system: SNB-19 CNS
[25] = test system: HT29 colon
[26] = test system: HCT-116 colon
[27] = test system: HCC-2998 colon
[28] = test system: MALME-3M melanoma
[29] = test system: RXF 393 renal
[30] = test system: SK-OV-3 ovarian
[31] = test system: M14 melanoma
[32] = test system: SK-MEL-2 melanoma
[33] = test system: HOP-92 NSCLC
[34] = test system: U251 CNS
[35] = test system: RPMI-8226 leukemia
[36] = test system: SN12C renal
[37] = test system: LOX IMVI melanoma
[38] = test system: T-47D breast
[39] = test system: DU-145 prostate
[40] = test system: ACHN renal
[41] = test system: CCRF-CEM leukemia
[42] = test system: HS 578T breast
[43] = test system: HL-60(TB) leukemia
[44] = test system: 786-0 renal
[45] = test system: SF-268 CNS
[46] = test system: IGROV1 ovarian
[47] = test system: K-562 leukemia
[48] = test system: OVCAR-4 ovarian
[49] = test system: A498 renal
[50] = test system: MDA-MB-468 breast
[51] = test system: HCT-15 colon
[52] = test system: MOLT-4 leukemia
[53] = test system: TK-10 renal
[54] = test system: CAKI-1 renal
[55] = test system: PC-3 prostate
[56] = test system: MDA-MB-435
[57] = test system: SF-539 CNS
[58] = test system: UACC-62 melanoma

## Nc1n[nH]c2cccc(C#Cc3cccc(NC(=O)Nc4cc(C(F)(F)F)cc(C(F)(F)F)c4)c3)c12
[1]
  GI50: 2.32 µM
  TGI: 6.83 µM
[2]
  GI50: 1.97 µM
  TGI: 5.3 µM
[3]
  GI50: 1.88 µM
  TGI: 4 µM
[4]
  GI50: 2.58 µM
  TGI: 15.3 µM
[5]
  GI50: 2.59 µM
  TGI: 8.44 µM
[6]
  GI50: 1.06 µM
  TGI: 2.45 µM
[7]
  GI50: 2.2 µM
  TGI: 10.4 µM
[8]
  GI50: 1.96 µM
  TGI: 3.8 µM
[9]
  GI50: 1.85 µM
  TGI: 4.1 µM
[10]
  GI50: 2.76 µM
  TGI: 8.6 µM
[11]
  GI50: 0.287 µM
  TGI: 10.6 µM
[12]
  GI50: 2.93 µM
  TGI: 10 µM
[13]
  GI50: 2.37 µM
  TGI: 7.01 µM
[14]
  GI50: 2.59 µM
  TGI: 11.3 µM
[15]
  GI50: 2.04 µM
  TGI: 5.14 µM
[16]
  GI50: 1.93 µM
  TGI: 4.25 µM
[17]
  GI50: 1.88 µM
  TGI: 3.69 µM
[18]
  GI50: 2.82 µM
  TGI: 9.34 µM
[19]
  GI50: 2.16 µM
  TGI: 5.44 µM
[20]
  GI50: 2.52 µM
  TGI: 7.36 µM
[21]
  GI50: 2.67 µM
  TGI: 8.06 µM
[22]
  GI50: 3.11 µM
  TGI: 10.3 µM
[23]
  GI50: 2.71 µM
  TGI: 8.02 µM
[24]
  GI50: 7.62 µM
  TGI: 21.2 µM
[25]
  GI50: 1.67 µM
  TGI: 3.26 µM
[26]
  GI50: 2.07 µM
  TGI: 5.64 µM
[27]
  GI50: 2.31 µM
  TGI: 5.07 µM
[28]
  GI50: 1.6 µM
  TGI: 4.24 µM
[29]
  GI50: 2.55 µM
  TGI: 6.69 µM
[30]
  GI50: 3.87 µM
  TGI: 12.3 µM
[31]
  GI50: 2.02 µM
  TGI: 4.55 µM
[32]
  GI50: 1.62 µM
  TGI: 3.34 µM
[33]
  GI50: 1.9 µM
  TGI: 5.12 µM
[34]
  GI50: 2.3 µM
  TGI: 6.22 µM
[35]
  GI50: 2.63 µM
  TGI: 9.16 µM
[36]
  GI50: 1.52 µM
  TGI: 3.31 µM
[37]
  GI50: 1.6 µM
  TGI: 2.94 µM
[38]
  GI50: 2.73 µM
  TGI: 11 µM
[39]
  GI50: 3.5 µM
  TGI: 12.5 µM
[40]
  GI50: 2.71 µM
  TGI: 9.39 µM
[41]
  GI50: 3.27 µM
  TGI: 14.2 µM
[42]
  GI50: 1.97 µM
  TGI: 7.7 µM
[43]
  GI50: 1.81 µM
  TGI: 7.04 µM
[44]
  GI50: 2.16 µM
  TGI: 4.78 µM
[45]
  GI50: 3.2 µM
  TGI: 14 µM
[46]
  GI50: 2.66 µM
  TGI: 7.78 µM
[47]
  GI50: 2.72 µM
  TGI: > 100 µM
[48]
  GI50: 2.6 µM
  TGI: 8.39 µM
[49]
  GI50: 3.84 µM
  TGI: 10.4 µM
[50]
  GI50: 2.22 µM
  TGI: 6 µM
[51]
  GI50: 2.48 µM
  TGI: 10.1 µM
[52]
  GI50: 2.77 µM
  TGI: 10.2 µM
[53]
  GI50: 4.2 µM
  TGI: 12.9 µM
[54]
  GI50: 2.36 µM
  TGI: 11.5 µM
[55]
  GI50: 2.23 µM
  TGI: 6.96 µM
[56]
  GI50: 1.92 µM
  TGI: 4.18 µM
[57]
  GI50: 1.52 µM
  TGI: 4.28 µM
[58]
  GI50: 2.11 µM
  TGI: 4.9 µM
